*1 amine or outer side, *2 acyl side, *3 side chain or, on linkers, in order; H or OH if unused. Where a SMILES comes first, the peptide text is derived from it. [ ]: non-standard residue; d: D form. The star is where a group is joined. Bip(2'-Et-4'-O(CH2)4NH2) = CCc1cc(OCCCCN[*:3])ccc1-c1ccc(C[C@H](N[*:1])C(=O)[*:2])cc1; X6 = O=C(NCCOCCOCCOCCOC(=O)*)OC[C@@H]1[C@@H]2CCc3[nH]nnc3CC[C@@H]21; Malonyl(2,2-Me2,histaminyl) = CC(C)(C(=O)NCCc1cnc[nH]1)C(=O)*; Nva(5-(3,5-Me2Ph)) = Cc1cc(C)cc(CCC[C@H](N)C(=O)O)c1; Ala(1H-tetrazol-5-yl) = N[C@@H](Cc1nnn[nH]1)C(=O)O; αMePhe(2-F) = C[C@](N)(Cc1ccccc1F)C(=O)O
Test: Plasma stability of payloads and linker-payloads, human plasma
Assay type: in vitro ADME
Settings: human plasma
Protocol: The plasma stability of payloads and linker payloads of the disclosure were measured. For the assay, pooled frozen plasma (human, mouse or monkey) was thawed in cold water or a 37° C. water bath prior to experiment. Plasma was centrifuged at 4000 rpm for 5 min if any clots were observed, they were subsequently removed. If required, the pH was adjusted to 7.4±0.1. For the preparation of compounds and positive controls, a 1 mM intermediate solution was prepared by diluting 10 μL of their stock solution with 90 μL DMSO; a 1 mM intermediate solution of the positive control (Propantheline) was prepared by diluting 10 μL of its stock solution with 90 μL ultrapure water. […] 98 μL of plasma was spiked with 2 μL of dosing solution (100 μM) to achieve the final concentration of 2 μM in duplicate. Samples were then incubated at 37° C. in a water bath. […] At each time point, 400 μL of stop solution (200 ng/mL tolbutamide plus 200 ng/mL labetalol in 50% ACN/MeOH) was added to precipitate protein and mixed thoroughly. Sample plates were then centrifuged at 4,000 rpm for 10 min. An aliquot of supernatant (50 μL) was transferred from each well and mixed with 100 μL ultra-pure water. The samples were then shaken at 800 rpm for approximately 10 min before submitting for LC-MS/MS analysis.

Compound	Human plasma stability assay T½ (tested for 7 days (D)) [h]	Human plasma stability assay T½ (tested for 3 days (C)) [h]	other results
CCc1cc(OCCCCn2cc(COCCOCCOCCOCCNC(=O)OC[C@@H]3[C@@H]4CCc5[nH]nnc5CC[C@@H]43)nn2)ccc1-c1ccc(C[C@H](NC(=O)[C@H](CC(=O)O)NC(=O)[C@H](CO)NC(=O)[C@@H](NC(=O)[C@](C)(Cc2ccccc2F)NC(=O)[C@@H](NC(=O)CNC(=O)[C@H](Cc2nn[nH]n2)NC(=O)C(C)(C)C(=O)NCCc2cnc[nH]2)[C@@H](C)O)[C@@H](C)O)C(=O)N[C@@H](CCCc2cc(C)cc(C)c2)C(N)=O)cc1 [LP24, triazole-BCN-PEG4-triazole-P8]	>404.7	–	–
CCc1cc(OCCCCNC(=O)OCCOCCOCCOCCNC(=O)OC[C@@H]2[C@@H]3CCc4[nH]nnc4CC[C@@H]32)ccc1-c1ccc(C[C@H](NC(=O)[C@H](CC(=O)O)NC(=O)[C@H](CO)NC(=O)[C@@H](NC(=O)[C@](C)(Cc2ccccc2F)NC(=O)[C@@H](NC(=O)CNC(=O)[C@H](Cc2nn[nH]n2)NC(=O)C(C)(C)C(=O)NCCc2cnc[nH]2)[C@@H](C)O)[C@@H](C)O)C(=O)N[C@@H](CCCc2cc(C)cc(C)c2)C(N)=O)cc1 [LP25, triazole-BCN-PEG4-carbamate-P9] ({Malonyl(2,2-Me2,histaminyl)}-[Ala(1H-tetrazol-5-yl)]GT[αMePhe(2-F)]TSD[Bip(2'-Et-4'-O(CH2)4NH2)](X6)[Nva(5-(3,5-Me2Ph))]-NH2)	284.8	–	–
CCc1cc(OCCCCNC(=O)[C@H](CO)NC(=O)CNC(=O)CNC(=O)CNC(=O)CNC(=O)CCC(=O)N2Cc3ccccc3-c3nn[nH]c3-c3ccccc32)ccc1-c1ccc(C[C@H](NC(=O)[C@H](CC(=O)O)NC(=O)[C@H](CO)NC(=O)[C@@H](NC(=O)[C@](C)(Cc2ccccc2F)NC(=O)[C@@H](NC(=O)CNC(=O)[C@H](Cc2nn[nH]n2)NC(=O)C(C)(C)C(=O)NCCc2cnc[nH]2)[C@@H](C)O)[C@@H](C)O)C(=O)N[C@@H](CCCc2cc(C)cc(C)c2)C(N)=O)cc1 [LP26, triazole-DABAC- G4S-P9]	>404.7	–	–
CCc1cc(OCCCCn2cc(COCCOCCOCCOCCOCCOCCOCCOCCNC(=O)CCC(=O)N3Cc4ccccc4-c4nn[nH]c4-c4ccccc43)nn2)ccc1-c1ccc(C[C@H](NC(=O)[C@H](CC(=O)O)NC(=O)[C@H](CO)NC(=O)[C@@H](NC(=O)[C@](C)(Cc2ccccc2F)NC(=O)[C@@H](NC(=O)CNC(=O)[C@H](Cc2nn[nH]n2)NC(=O)C(C)(C)C(=O)NCCc2cnc[nH]2)[C@@H](C)O)[C@@H](C)O)C(=O)N[C@@H](CCCc2cc(C)cc(C)c2)C(N)=O)cc1 [LP28, triazole-DIBAC-suc-PEG8-triazole-P8]	–	–	half-life (tested for 3 days (C), read-out: Human plasma stability assay T½): > 173 h
CCc1cc(OCCCCn2cc(COCCOCCOCCOCCOCCOCCOCCOCCN)nn2)ccc1-c1ccc(C[C@H](NC(=O)[C@H](CC(=O)O)NC(=O)[C@H](CO)NC(=O)[C@@H](NC(=O)[C@](C)(Cc2ccccc2F)NC(=O)[C@@H](NC(=O)CNC(=O)[C@H](Cc2nn[nH]n2)NC(=O)C(C)(C)NC(=O)[C@@H](N)Cc2ccc(O)cc2)[C@@H](C)O)[C@@H](C)O)C(=O)N[C@@H](CCCc2cc(C)cc(C)c2)C(N)=O)cc1 [LP29, NH2-PEG8-triazole-P19]	–	>173.4	–
CCc1cc(OCCCCn2cc(COCCOCCOCCOCCOCCOCCOCCOCCC(=O)N[C@@H](CC(C)C)C(=O)N3CCC[C@@H]3C(=O)N[C@@H](CCC(=O)O)C(=O)N[C@H](C(=O)NCC(=O)NCC(=O)O)[C@@H](C)O)nn2)ccc1-c1ccc(C[C@H](NC(=O)[C@H](CC(=O)O)NC(=O)[C@H](CO)NC(=O)[C@@H](NC(=O)[C@](C)(Cc2ccccc2F)NC(=O)[C@@H](NC(=O)CNC(=O)[C@H](Cc2nn[nH]n2)NC(=O)C(C)(C)C(=O)NCCc2cnc[nH]2)[C@@H](C)O)[C@@H](C)O)C(=O)N[C@@H](CCCc2cc(C)cc(C)c2)C(N)=O)cc1 [LP34, GGTEPL-PEG8- triazole-P8]	–	>173.4	–

— US20250161476A1 (REGENERON PHARMACEUTICALS, INC., priority 2020, published 2025)
